According to patent EP0777471B1, “INHIBITION OF LEUKOTRIENE BIOSYNTHESIS WITH UREA DERIVATIVES” (MINNESOTA MINING AND MANUFACTURING COMPANY, priority 1994, dated 1996):
Several values for one entry are separate records, joined by “and”; a condition that tells them apart may be missing. Equal entries are not always repeated. Where two headings read alike, the source gives them in different places.

Key:
[1] = tested on: production of Leukotriene B4 (LTB4); experiment: Dog ex vivo Leukotriene B4 inhibition (oral dosing, blood challenged with calcium ionophore); type: in vivo, beagle dogs; details: each entry one dog, negative = stimulation of LTB4 production; for % Inhibition 6 hour / % Inhibition 2 hour / % Inhibition 4 hour / % Inhibition 1 hour: 5 mg/Kg; for inhibition at 5 mg/kg: Canis lupus familiaris, po
In short: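 Beagle dogs (~10 kg) given compound orally by gavage in PEG 400 at 5 mg/kg; jugular blood drawn pre-dose and at selected post-dose times. Blood challenged with calcium ionophore 30 min at 37°C, plasma LTB4 measured by radioimmunoassay; % inhibition from post-dose versus pre-dose LTB4, one dog per value.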

5-lipoxygenase = biological target: T1, 5-lipoxygenase (Homo sapiens, UniProt P09917); experiment: 5-Lipoxygenase inhibition in human leukocytes (A23187-stimulated, LTC4 radioimmunoassay); type: cell-based
T1 construct: Whole human blood is collected by venipuncture into EDTA; endogenous in cells; host or cells: leukocytes isolated from whole human blood (dextran sedimentation, hypotonic lysis)
T1 sequence (P09917 1-674): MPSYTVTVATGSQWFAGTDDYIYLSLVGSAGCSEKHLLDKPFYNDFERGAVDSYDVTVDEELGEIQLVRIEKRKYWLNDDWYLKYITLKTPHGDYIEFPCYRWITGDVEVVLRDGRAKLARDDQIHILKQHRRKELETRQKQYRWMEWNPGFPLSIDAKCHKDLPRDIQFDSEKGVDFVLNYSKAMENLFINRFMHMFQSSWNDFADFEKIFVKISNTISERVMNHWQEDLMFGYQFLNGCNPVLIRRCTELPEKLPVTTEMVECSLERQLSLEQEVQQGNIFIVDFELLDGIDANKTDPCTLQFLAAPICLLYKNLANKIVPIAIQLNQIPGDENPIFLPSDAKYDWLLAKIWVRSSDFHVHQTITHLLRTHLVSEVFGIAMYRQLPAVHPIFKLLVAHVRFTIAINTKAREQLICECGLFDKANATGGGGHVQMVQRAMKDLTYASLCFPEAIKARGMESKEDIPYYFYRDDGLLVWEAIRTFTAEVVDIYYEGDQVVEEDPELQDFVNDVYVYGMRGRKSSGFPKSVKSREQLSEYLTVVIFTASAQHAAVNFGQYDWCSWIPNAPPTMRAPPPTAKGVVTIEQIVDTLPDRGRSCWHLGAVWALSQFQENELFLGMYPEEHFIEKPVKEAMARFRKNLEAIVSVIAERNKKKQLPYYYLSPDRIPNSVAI
Method: The test method described below measures the ability of compounds to inhibit 5-lipoxygenase activity in human leukocytes.
Whole human blood is collected by venipuncture into EDTA (1.4 mL of 0.25M per 60 mL of whole blood). The red blood cells are sedimented with a 6% dextran/0.9% sodium chloride solution at a ratio of 25 mL whole blood to 15 mL dextran solution. The blood/dextran combination is mixed by inversion and the red blood cells are allowed to settle out for 45 minutes at ambient temperature. The plasma/dextran supernatant is removed then centrifuged at ambient temperature at 3000 rpm for 10 minutes. The plasma/dextran supernatant is removed and the cells are resuspended in 10 mL of the plasma/dextran solution. […] The pellet is then resuspended into Tris buffer containing 1 mM calcium chloride to provide approximately 1.0 X 10^7 cells/mL.
Compounds are dissolved in dimethyl sulfoxide. […] Each concentration is tested in duplicate.
A 15 µL portion of Tris buffer containing 1 mM calcium chloride is added to each well of a 96 well microtiter plate. A 1 µL portion of drug solution or vehicle (dimethyl sulfoxide) is added to each well followed by the addition of an 75 µL portion of the cell suspension. The plates are gently mixed then allowed to stand at ambient temperature for 10 minutes. A 10 µL portion of 30 µM A23187 Calcium Ionophore (prepared by dissolving the ionophore in DMSO and then diluting 1:80 into the Tris buffer) is added to each well except the wells that contain the blanks (The blank wells measure the level of LTC4 production in the absence of A23187.). The plates are gently mixed then incubated at 37°C for 10 minutes.
Following incubation the plates are centrifuged at 2000 rpm for 1.5 minutes and the supernatant is removed as quickly as possible to stop the reaction. The supernatants are frozen at -20°C until they are assayed.
The supernatants are assayed for the presence of Leukotriene C4 by radioimmunoassay which is performed according to the manufacturer's (Advanced Magnetics; Cambridge, MA) instructions.

[2] = 1 h, 1 hour post dose, read-out: % Inhibition 1 hour
[3] = 2 h, 2 hour post dose, read-out: % Inhibition 2 hour
[4] = 4 h, 4 hour post dose, read-out: % Inhibition 4 hour
[5] = 6 h, 6 hour post dose, read-out: % Inhibition 6 hour
[6] = human leukocytes, A23187 Calcium Ionophore, LTC4 formed, read-out: IC50

Row | SMILES | % Inhibition 6 hour ([1]; 6 hour post dose) | inhibition at 5 mg/kg [1, 2] [%] | inhibition at 5 mg/kg [1, 3] [%] | inhibition at 5 mg/kg [1, 4] [%] | inhibition at 5 mg/kg [1, 5] [%] | IC50 (5-lipoxygenase; [6]) [nM] | % Inhibition 2 hour ([1]; 2 hour post dose) | % Inhibition 4 hour ([1]; 4 hour post dose) | % Inhibition 1 hour ([1]; 1 hour post dose) | IC50 (5-lipoxygenase) [nM]
1 | CSc1ccc(NC(=O)N(C)O)cc1 [Compound 1, 1-Hydroxy-1-methyl-3-[4-(methylthio)phenyl]urea] | 95% | 100 | 100 | 100 | 93 | 83 |  |  |  | 
2 | COc1cccc(NC(=O)N(C)O)c1 [Compound 5, 1-hydroxy-3-(3-methoxyphenyl)-1-methylurea] | 20% and 50% | 100 |  |  |  | 420 | 75% | 99% and 44% |  | 
3 | CN(O)C(=O)Nc1cccc(Br)c1 [Compound 6, 3-(3-bromophenyl)-1-hydroxy-1-methylurea] | -52% and 19% | 86 |  |  |  | 70 | 11% and 62% | -36% and 27% | 100% | 
4 | Cc1cccc(NC(=O)N(C)O)c1 [Compound 7, 1-hydroxy-1-methyl-3-(3-methylphenyl)urea] | -21% and 48% | 100 | 100 | 70 |  | 280 | 99% | 56% |  | 
5 | CN(O)C(=O)Nc1cccc(F)c1 [Compound 8, 3-(3-fluorophenyl)-1-hydroxy-1-methylurea] | 9% and -32% | 100 | 92 |  |  | 680 |  | 27% and 11% |  | 
6 | CN(O)C(=O)Nc1cccc([N+](=O)[O-])c1 [Compound 9, 1-hydroxy-1-methyl-3-(3-nitrophenyl)urea] | 54% | 100 |  | 33 | 56 | 80 | 34% and 83% | 18% |  | 
7 | CN(O)C(=O)Nc1ccccc1 [Compound 10, 1-hydroxy-1-methyl-3-phenylurea] | 42% | 100 | 100 | 49 | 52 | 20 |  | 34% |  | 
8 | CSc1cccc(NC(=O)N(O)C(C)C)c1 [Compound 16, 1-hydroxy-1-(1-methylethyl)-3-[3-(methylthio)phenyl]urea] | -39% and -24% and -186% | 100 | 97 |  |  | 8 |  | -8% and -18% and -14% and -80% |  | 
9 | CC(C)N(O)C(=O)Nc1ccccc1 [Compound 17, 1-hydroxy-1-(1-methylethyl)-3-phenylurea] | 64% and 43% | 100 | 98 |  |  | 43 |  | 70% |  | 
10 | CC(C)N(O)C(=O)Nc1ccc(F)cc1 [Compound 18, 3-(4-fluorophenyl)-1-hydroxy-1-(1-methylethyl)urea] | 46% and -12% | 100 | 100 | 49 |  | 210 |  | 57% |  | 
11 | CC(C)N(O)C(=O)Nc1ccc(Br)cc1 [Compound 19, 3-(4-bromophenyl)-1-hydroxy-1-(1-methylethyl)urea] | 29% and 65% | 100 | 84 |  |  | 100 |  | 11% and 74% |  | 
12 | CC(C)N(O)C(=O)Nc1ccccc1F [Compound 20, 3-(2-fluorophenyl)-1-hydroxy-1-(1-methylethyl)urea] | 13% | 100 | 100 | 57 | 17 | 700 |  | 64% |  | 
13 | Cc1cccc(NC(=O)N(O)C(C)C)c1 [Compound 21, 1-hydroxy-1-(1-methylethyl)-3-(3-methylphenyl)urea] | 24% and -8% | 100 | 95 |  |  | 230 | 88% | 0% and -37% |  | 
14 | COc1ccc(NC(=O)N(O)C(C)C)cc1 [Compound 23, 1-hydroxy-3-(4-methoxyphenyl)-1-(1-methylethyl)urea] | 15% and 80% and 98% and 56% | 100 | 99 |  |  | 150 |  | 84% and 82% and 59% |  | 
15 | CC(C)N(O)C(=O)Nc1ccccc1Cl [Compound 24, 3-(2-chlorophenyl)-1-hydroxy-1-(1-methylethyl)urea] | -21% and -24% | 99 | 73 | 7 |  |  | 84% | 14% | 100% | 200
16 | Cc1ccccc1NC(=O)N(O)C(C)C [Compound 25, 1-hydroxy-1-(1-methylethyl)-3-(2-methylphenyl)urea] | 9% | 100 | 51 |  | 7 | 130 | 57% | -45% and -78% | 98% | 
17 | CC(C)CCN(O)C(=O)Nc1ccccc1 [Compound 44, 1-hydroxy-1-(3-methylbutyl)-3-phenylurea] | -19% and 30% |  |  |  |  | 10 | 11% and 5% | -19% and 12% | 80% and 52% | 
18 | CC(C)CN(O)C(=O)Nc1ccccc1 [Compound 54, 1-Hydroxy-1-(2-methylpropyl)-3-phenylurea] |  | 99 | 97 | 33 | 43 | 94 |  |  |  | 
19 | CN(O)C(=O)Nc1cccc(S(C)(=O)=O)c1 [Compound 59, 1-Hydroxy-1-methyl-3-[3-(methylsulfonyl)phenyl]urea] | 37% and 55% and 93% and 76% | 100 | 99 |  |  | 1100 |  | 83% and 75% and 78% |  | 
